The values that follow come from patent publication US20100041662A1, “Heterocyclic compounds as antiinflammatory agents” (priority 2006, published 2010).

A word on the IC50: it is the midpoint of a concentration-inhibition curve.

For experiment [1], the target named is T1, human ALK5 (ALK5 T204D kinase domain) (Homo sapiens, UniProt P36897, T204D).
T1 construct: The kinase domain of human ALK5 (amino acids 200-503) is fused to an N-terminal histidine tag; made in house; host or cells: insect cells (baculovirus)
T1 sequence (P36897 200-503 T204D): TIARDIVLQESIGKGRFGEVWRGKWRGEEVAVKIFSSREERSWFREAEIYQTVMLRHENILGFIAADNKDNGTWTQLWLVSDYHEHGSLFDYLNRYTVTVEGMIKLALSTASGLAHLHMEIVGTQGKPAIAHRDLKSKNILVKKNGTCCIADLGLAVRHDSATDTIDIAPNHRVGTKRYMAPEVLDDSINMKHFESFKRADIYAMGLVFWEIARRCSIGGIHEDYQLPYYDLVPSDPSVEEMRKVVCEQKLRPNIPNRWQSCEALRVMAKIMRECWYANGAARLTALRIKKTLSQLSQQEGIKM
Description: ALK5 kinase activity, [33P] phosphate incorporation into casein. The experiment is classed as biochemical. The following applies: casein substrate. The protocol:
The kinase activity of ALK5 is assessed by measuring radiolabelled phosphate [33P] incorporation in to the generic substrate, casein. The kinase domain of human ALK5 (amino acids 200-503) is fused to an N-terminal histidine tag. The kinase activity of ALK5 is rendered constitutive via point mutation at amino acid 204 (threonine to aspartate modification, ALK5 T204D) and the kinase construct is engineered to be expressed from a baculovirus expression construct in insect cells. The purified, recombinantly-expressed histidine-tagged ALK5 T204D protein is dissolved at 5.4 mg/ml in 50 mM Tris-HCl pH 8.0, 150 mM NaCl, 5 mM DTT. ALK5 T204D is dissolved to 2.5 μg/ml in assay buffer (Assay buffer: 20 mM Tris-HCl pH 7.4, 10 mM MgCl2, 2 mM MnCl2) on the day of use.
Test compounds and reference compounds are dissolved in assay buffer without DTT containing 5% (v/v) DMSO. Stock solutions of test and reference compounds are diluted in assay buffer with DTT (1.25 mM) containing 4.5% (v/v) DMSO. 10 μl of test or reference compound are added to the appropriate wells of 96 well U-bottomed plate. Total enzyme activity is determined by measuring ALK5 T204D activity in the absence of ALK5 kinase inhibitor reference compounds. Non-specific binding (NSB) is determined by measuring the activity of ALK5 T204D in the presence of ALK5 kinase inhibitor reference compounds. 10 μl of dephosphorylated casein stock solution (dephosphorylated casein is dissolved in ddH2O at 20 mg/ml) is added per well (200 μg/well final assay concentration). 20 μl of ALK5 T204D (2.5 μg/ml solution) is added per well (50 ng/well final assay concentration). The plates are left to incubate at room temperature for 10 minutes.
10 μl of ATP mix is added to the well to initiate the reaction (0.66 nM [^33P]ATP/1 μM unlabelled ATP/well final assay concentration). The ATP mix is prepared as follows, unlabelled ATP (3 mM) is dissolved in ddH2O and pH adjusted to 7.4. The stock concentration of [^33P]ATP is 10 μCi/μl. The appropriate volume of [^33P]ATP is added to unlabelled ATP solution such that the final assay concentration per well is 0.1 μCi. Following addition of the ATP mix, the plates are incubated at room temperature for 50 minutes. The kinase reaction is terminated by the addition of 50 μL Stop Buffer (20 mM Tris-HCl pH 7.4, 10 mM EDTA).
75 μl/well from the reaction plate is transferred to a Multiscreen-IP plate (MultiScreen-IP plates are prepared by added 50 μL of 70% (v/v) ethanol per well and incubated for 5 minutes at room temperature. The ethanol is removed by aspiration via a MultiScreen HTS Vacuum Manifold unit (Millipore, Cat no: MSVMHT500). The plates are washed twice by adding 200 μl/well ddH2O). The MultiScreen-IP plate is incubated at room temperature for 30 minutes to allowing binding of casein to the plate. The MultiScreen-IP plates are washed three times by adding 200 μl/well 100 mM phosphoric acid solution and the gasket is carefully removed from the back of the MultiScreen-IP plate and the plate dried in the oven for 30 minutes. The MultiScreen-IP plate is backsealed, 50 μL of Microscint™20 is added, then the plates are topsealed and radiolabelled casein detected and quantified on a TopCount™ plate-reader using the ^33P scintillation protocol.

Experiment [2] concerns the target T2, JAK2 (GST-JAK2(808-1132)) (Homo sapiens, UniProt O60674).
T2 construct: GST-JAK2(808-1132) was purchased from Invitrogen (Carlsbad, USA, #4288); purchased Invitrogen (Carlsbad, USA) #4288
Nature of the experiment: JAK/TYK-kinase family profiling, Caliper mobility shift assay. The following applies: 20 μM ATP, JAK3tide substrate. The class given is biochemical. From the text:
All four kinases of the JAK/TYK-kinase family were used as purified recombinant GST-fusion proteins, containing the active kinase domains. GST-JAK1(866-1154), GST-JAK3(811-1124), and GST-TYK2(888-1187) were expressed and purified by affinity chromatography at the EPK biology unit. GST-JAK2(808-1132) was purchased from Invitrogen (Carlsbad, USA, #4288).
The kinase assays were based on the Caliper mobility shift assay using the LabChip 3000 systems. This technology is similar to capillary electrophoresis and uses charge driven separation of substrate and product in a microfluidic chip.
All kinase reactions were performed in 384 well microtiter plates in a total reaction volume of 18 μl. The assay plates were prepared with 0.1 μl per well of test compound in the appropriate test concentration, as described under the section “preparation of compound dilutions”. The reactions were started by combining 9 μl of substrate mix (consisting of peptide and ATP) with 9 μl of kinase dilution. The reactions were incubated for 60 minutes at 30° C. and stopped by adding 70 μl of stop buffer (100 mM Hepes, 5% DMSO, 0.1% Coating reagent, 10 mM EDTA, 0.015% Brij 35).
Fluorescently labeled synthetic peptides were used as substrates in all reactions. A peptide derived from the sequence of IRS-1 (IRS-1 peptide, FITC-Ahx-KKSRGDYMTMQIG-NH2) was used for JAK1 and TYK2 and a peptide named JAK3tide (FITC-GGEEEEYFELVKKKK-NH2) for JAK2 and JAK3. Specific assay conditions are described in Table 1:
The terminated reactions were transferred to the Caliper LabChip 3000 reader and the turnover of each reaction was measured by determining the substrate/product ratio.
Test compounds were dissolved in DMSO (10 mM) and transferred into 1.4 mL flat bottom or V-shaped Matrix tubes carrying a unique 2D matrix chip by individual compound hubs. The numbers of these chips were distinctively linked to the individual compound identification numbers. The stock solutions were stored at −20° C. if not used immediately. For the test procedure the vials were defrosted and identified by a scanner whereby a working sheet was generated that guided the subsequent working steps.
Compound dilutions were made in 96 well plates. This format enabled the assay of maximally 40 individual test compounds at 8 concentrations (single points) including 4 reference compounds. The dilution protocol included the production of pre-dilution plates, master plates and assay plates:
Pre-dilution plates: 96 polypropylene well plates were used as pre-dilution plates. A total of 4 pre-dilution plates were prepared including 10 test compounds each on the plate positions A1-A10, one standard compound at A11 and one DMSO control at A12. All dilution steps were done on a HamiltonSTAR robot. Master plates: 100 μL of individual compound dilutions including standard compound and controls of the 4 “pre-dilution plates” were transferred into a 384 “master plate” including the following concentrations 1′820, 564, 182, 54.6, 18.2, 5.46, 1.82 and 0.546 μM, respectively in 90% of DMSO. Assay plates: Identical assay plates were then prepared by pipetting […] each of compound dilutions of the master plates into 384-well “assay plates”. In the following the compounds were mixed with 9 μL of assays components plus 9 μL enzyme corresponding to a 1:181 dilution steps enabling the final concentration of 10, 3.0, 1.0, 0.3, 0.1, 0.03, 0.01 and 0.003 μM, respectively. The preparation of the master plates were handled by the Matrix PlateMate Plus robot and replication of assay plates by the HummingBird robot.

Experiment [3] deals with bleomycin-induced pulmonary fibrosis. The following applies: bleomycin-treated rats; cited from earlier work.

T2 sequence (O60674 808-1132): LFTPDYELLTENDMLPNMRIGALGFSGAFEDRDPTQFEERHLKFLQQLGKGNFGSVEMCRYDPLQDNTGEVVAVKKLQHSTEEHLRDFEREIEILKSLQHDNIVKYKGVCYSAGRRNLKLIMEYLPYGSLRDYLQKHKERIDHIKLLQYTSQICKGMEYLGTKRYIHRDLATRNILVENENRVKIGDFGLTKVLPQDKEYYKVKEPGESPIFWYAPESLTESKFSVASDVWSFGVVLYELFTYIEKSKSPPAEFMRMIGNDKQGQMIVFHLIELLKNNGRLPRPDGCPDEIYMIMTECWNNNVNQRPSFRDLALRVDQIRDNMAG

Regarding `O[C@H]1CC[C@H](Nc2ccc3ncc(-c4ccnc(-c5ccncc5)c4)n3n2)CC1` [Example 1.1, 4-(3-[2,4′]Bipyridinyl-4-yl-imidazo[1,2-b]pyridazin-6-ylamino)-cyclohexanol], in experiment [1], the IC50 worked out at 42 nM. The molecule `Cc1ccc(-c2cc(-c3cnc4ccc(NC5CCC(O)CC5)nn34)ccn2)s1` (stereo not drawn) [Example 1.2, 4-{3-[2-(5-Methyl-thiophen-2-yl)-pyridin-4-yl]-imidazo[1,2-b]pyridazin-6-ylamino}-cyclohexanol] came in with an IC50 in experiment [1] of 36 nM. Molecule `OC1CCC(Nc2ccc3ncc(-c4ccnc(-c5ccoc5)c4)n3n2)CC1` (stereo not drawn) [Example 1.3, 4-[3-(2-Furan-3-yl-pyridin-4-yl)-imidazo[1,2-b]pyridazin-6-ylamino]-cyclohexanol] registered an IC50 in experiment [1] of 5 nM.

The molecule `Cn1cc(-c2cc(-c3cnc4ccc(NC5CCC(O)CC5)nn34)ccn2)cn1` (stereo not drawn) [Example 1.4, 4-{3-[2-(1-Methyl-1H-pyrazol-4-yl)-pyridin-4-yl]-imidazo[1,2-b]pyridazin-6-ylamino}-cyclohexanol] showed an IC50 in experiment [1] of 150 nM. Still for that read-out and setting: under `OC1CCC(Nc2ccc3ncc(-c4ccnc(C5CC5)c4)n3n2)CC1` (stereo not drawn) [Example 1.6, 4-[3-(2-Cyclopropyl-pyridin-4yl)-imidazo[1,2-b]pyridazin-6-ylamino]-cyclohexanol] stands 15 nM; under `OC1CCC(Nc2ccc3ncc(-c4cccc(-n5cccn5)c4)n3n2)CC1` (stereo not drawn) [Example 1.7, 4-[3-(3-Pyrazol-1-yl-phenyl)-imidazo[1,2-b]pyridazin-6-ylamino]-cyclohexanol], 5 nM. In the case of `CN1CCN(C(=O)c2ccc(-c3cnc4ccc(NCc5cc(F)ccc5F)nn34)cc2)CC1` [Example 2.1, {4-[6-(2,5-Difluoro-benzylamino)-imidazo[1,2-b]pyridazin-3-yl]-phenyl}-(4-methyl-piperazin-1-yl)-methanone], the IC50 in experiment [2] was 16 nM.

Turning to `O=C(NCCN1CCOCC1)c1ccc(-c2cnc3ccc(NCc4cc(F)ccc4F)nn23)cc1` [Example 2.2, 4-[6(2,5-Difluorobenzylamino)-imidazo[1,2-b]pyridazin-3-yl]-N-(2-morpholin-4-yl-ethyl)benzamide], the IC50 in experiment [2] is 8 nM. With `CN(C)C1CCN(C(=O)c2ccc(-c3cnc4ccc(NCc5cc(F)ccc5F)nn34)cc2)CC1` [Example 2.3, {4-[6-(2,5-Difluorobenzylamino)-imidazo[1,2-b]pyridazin-3-yl]-phenyl}-(4-dimethylamino-piperidin-1-yl)-methanone], the IC50 in experiment [2] was determined as 14 nM. Still for that read-out and setting: under `O=C(c1ccc(-c2cnc3ccc(NCc4cc(F)ccc4F)nn23)cc1)N1CCOCC1` [Example 2.4, {4-[6-(2,5-Difluoro-benzylamino)-imidazo[1,2-b]pyridazin-3-yl]-phenyl}-morpholin-4-yl-methanone] stands 20 nM. On the same count and under the same terms, under `O=C(NC1CCOCC1)c1cccc(-c2cnc3ccc(NCc4cc(F)ccc4F)nn23)c1` [Example 2.5] stands 21 nM; under `CCN1CCCC1CNC(=O)c1ccc(-c2cnc3ccc(NCc4cc(F)ccc4F)nn23)cc1` (stereo not drawn) [Example 2.6, 4-[6-(2,5-Difluoro-benzylamino)-imidazo[1,2-b]pyridazin-3-yl]-N-(1-ethyl-pyrrolidin-2-ylmethyl)-benzamide], 11 nM; under `O=C(NC1CCOCC1)c1ccc(-c2cnc3ccc(NCc4cc(F)ccc4F)nn23)cc1` [Example 2.7, 4-[6-(2,5-Difluorobenzylamino)-imidazo[1,2-b]pyridazin-3-yl]-N-(tetrahydro-pyran-4-yl)-benzamide], 13 nM.

B1: follistatin: an antagonist of activin signalling (protein, UniProt P19883 30-344, looked up)
Follistatin: GNCWLRQAKNGRCQVLYKTELSKEECCSTGRLSTSWTEEDVNDNTLFKWMIFNGGAPNCIPCKETCENVDCGPGKKCRMNKKNKPRCVCAPDCSNITWKGPVCGLDGKTYRNECALLKARCKEQPELEVQYQGRCKKTCRDVFCPGSSTCVVDQTNNAYCVTCNRICPEPASSEQYLCGNDGVTYSSACHLRKATCLLGRSIGLAYEGKCIKAKSCEDIQCTGGKKCLWDFKVGRGRCSLCDELCPDSKSDEPVCASDNATYASECAMKEAACSSGVLLEVKHSGSCNSISEDTEEEEEDEDQDYSFPISSILEW
As to B1, in experiment [3], the “destruction of lung architecture” value is “ameliorated”; the lung fibrosis entry was “attenuated”; the “number of infiltrating cells” value was “markedly reduced”; the “number of macrophages and neutrophils in bronchoalveolar lavage” value is “significantly reduced”. Moreover, in experiment [3], the “protein content of bronchoalveolar lavage” value is given as “reduced the protein content”.
